Positions of bridges follow the written chain, without caps; N, C: chain ends. Non-standard residues stand in square brackets, D forms with d. No end group written: not given here. hArg = N=C(N)NCCCC[C@H](N)C(=O)O; Cit = NC(=O)NCCC[C@H](N)C(=O)O
target: T1, murine E^d MHC class II allele (Mus musculus, UniProt P01904+P01915); experiment: processed antigen assay, E^d allele (APC pulsed with native HEL); assay type: cell-based; set-up: The A20 and CH27 B cell lymphoma lines express H-2^d and H-2^k alleles, respectively; endogenous in cells; host or cells: A20 B cell lymphoma (mitomycin C-treated or paraformaldehyde-fixed); conditions: Table 31; native HEL prepulse 10 μM; AE peptide 64 μM; supernatant dilution 1:4
T1 sequence (P01904 26-255): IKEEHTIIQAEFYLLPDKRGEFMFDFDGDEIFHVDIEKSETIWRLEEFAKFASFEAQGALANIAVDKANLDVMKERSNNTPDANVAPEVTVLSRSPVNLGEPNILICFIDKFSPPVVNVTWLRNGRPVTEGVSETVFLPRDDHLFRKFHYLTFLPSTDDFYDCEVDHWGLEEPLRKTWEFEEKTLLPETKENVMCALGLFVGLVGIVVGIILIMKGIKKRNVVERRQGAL
T1 sequence (P01915 27-264 limits assumed): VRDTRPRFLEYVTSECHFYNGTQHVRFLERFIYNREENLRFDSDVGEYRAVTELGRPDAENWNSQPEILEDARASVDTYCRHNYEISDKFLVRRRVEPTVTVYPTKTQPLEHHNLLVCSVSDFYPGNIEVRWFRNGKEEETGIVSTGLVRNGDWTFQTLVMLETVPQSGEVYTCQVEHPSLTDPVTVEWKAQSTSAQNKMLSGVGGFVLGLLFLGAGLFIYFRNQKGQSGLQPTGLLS
Experimental: In a third type of assay, the “processed antigen assay”, certain of the AE101 series of peptides inhibit stimulation of specific T cell hybridomas by antigenic peptides which are derived from the endogenous processing of a native protein antigen. This assay, which is related to the peptide prepulse assay, is performed by incubating APC with native protein antigen for 8 h, after which the pulsed APC are washed and treated with mitomycin C. Those pulsed APC are then combined with AE101 series peptides and T cell hybridomas and are incubated for 24 h. After that incubation, an aliquot of the culture supernatant is transferred to a second culture to measure T cell stimulation, as reflected in the effect of released interleukins on the growth of an interleukin-dependent, indicator cell line. During the 8 h incubation with native protein antigen, the protein antigen is taken into the APC. The native protein enters the processing pathway within the APC, where it is enzymatically cleaved to peptide fragments. Those peptide fragments with high affinity for the particular MHC class II molecules produced by the APC form antigenic peptide/MHC class II complexes which are transported to the cell surface. At the cell surface, the MHC class II molecules are contacted by the AE101 peptides, which cause the release of the antigenic peptide by the same mechanism proposed for the “peptide prepulse” assay above.
The “processed antigen assay” was carried out under essentially the same conditions as the “peptide prepulse assay”, with the following modifications. Untreated APC were incubated at 1×10^6/mL in 24-well plates (1 mL/well) with native protein antigen for 8 h. Following that incubation, the pulsed APC were washed, treated with mitomycin C, and washed again. AE101 series peptide was added at 64 μM, 16 μM, 4 μM, and 1 μM concentrations for 24 h in the presence of the T cell hybridoma specific for the antigenic peptide. Interleukin release from these cultures was measured by proliferation of HT-2 cells to interleukins in supernatants transferred from the primary culture. The baseline T cell response was measured by culturing T hybridoma cells with the native antigen-prepulsed APC in the absence of AE101 series peptides.
The “processed antigen assay” was carried out under essentially the same conditions as the “peptide prepulse” assay, with the following modifications. Untreated APC were incubated at 1×10^6/mL in 24-well plates (1 mL/well) with native protein antigen for 8 h. Following incubation, the pulsed APC were washed, treated with mitomycin C, and were washed again. The assay conditions were then as described for “peptide prepulse” above. The baseline T cell response was measured by culturing T hybridoma cells with the native antigen-prepulsed APC in the absence of AE101 peptides.
Table 2.9: Activities of substitution series at Leucine^80 in AE114 in a processed antigen assay. […] The results in this assay constitute, relatively, a mirror image of the result in the simultaneous assay (Example 1, Table 7) and parallel those of the antigenic peptide prepulse assay (Example 5, Table 24). Untreated APC were incubated with native HEL, instead of antigenic peptide, for 8 h. After incubation, the pulsed cells were washed and mitomycin C treated before being cocultured with AE-peptides and T cell hybridomas. Wells containing only T cells and native HEL-prepulsed APC were used to determine the Baseline response, or 1, in the absence of AE peptides. The concentration of AE peptide used was 64 μM for these assays. The supernatant dilutions used in the HT-2 cell assay were 1:4 (first value) and 1:8 (second value).

Row | Substance | T cell response relative to baseline (None = 1.00), E^d
1 | Ac-A[Cit]NKNPK-NH2 [AE351] | 0.87
2 | Ac-LR Orn K HArg PK-NH2 [AE340] | 0.16
3 | Ac-LRMKNPF-NH2 [AE350] | 0.56

same assay, conditions: Table 32; native HEL prepulse 20 μM; AE peptide 64 μM; supernatant dilution 1:4

Row | Substance | T cell response relative to baseline (None = 1.0), E^d
4 | Ac-FK HArg MYP Cit-NH2 [AE371] | 0.61
5 | Ac-LK HArg KYPK-NH2 [AE363] | 0.75
6 | Ac-LKMKYPK-NH2 [AE362] | 0.58
7 | Ac-LR HArg KYP Cit-NH2 [AE366] | 0.53
8 | Ac-LR HArg MYPK-NH2 [AE365] | 0.65
9 | Ac-LRLKYPN-NH2 [AE368] | 0.55
10 | Ac-LRMKYPN-NH2 [AE370] | 0.55
11 | Ac-LRMKYP[Cit]-NH2 [AE364] | 0.56
12 | Ac-LRMMYP[Cit]-NH2 [AE367] | 0.69
13 | Ac-L[hArg]LKYPK-NH2 [AE361] | 0.51
14 | Ac-L[hArg]MKYPK-NH2 [AE360] | 0.64

same assay, conditions: Table 34; AE peptide 64 μM; native HEL 10 μM prepulse; supernatant 1:8

Row | Substance | Activity in processed antigen assay, E^d (baseline = 1.0)
15 | Ac-LRMKLPK (lactam 4-C) [AE382] | 0.61
16 | cyclic LRMKLPK (bridge (positions not given here); also: cyclic, ring type not given here) [AE381, “head-to-tail” cyclization from the amino-terminus to the carboxyl-terminus of AE114] | 0.18
